Where a SMILES comes first, the peptide text is derived from it. Where no end group is shown, it is not given here. [ ]: non-standard residue; d: D form.
Experiments:
MRSA (NCTC 12493) = format: cell-based, methicillin-resistant Staphylococcus aureus; details: NCTC 12493, 24 h
Source text: (§1) Seven microorganism strains were used to preliminarily evaluate the antimicrobial activity of PSTO2 and its analogues, including Staphylococcus aureus (S. aureus) (ATCC® 6538), methicillin-resistant Staphylococcus aureus (MRSA) (NCTC® 12493), Enterococcus faecalis (E. faecalis) (NCTC® 12697), E. coli (ATCC® 8739), Klebsiella pneumonia (K. pneumonia) (ATCC® 43816), Pseudomonas aeruginosa (P. aeruginosa) (ATCC® CRM 9027), Acinetobacter baumanni (A. baumanni) (BAA® 747), and Candida albicans (C. albicans) (ATCC® 10231). In this study, the strains were cultured in Mueller–Hinton broth (MHB), nutrient broth (NB), and yeast–peptone–dextrose broth (YPD-B) correspondingly at 37 °C, with shaking at 120 rpm. Each peptide was dissolved from 128 μM to 1 μM and mixed with the bacterium at 5 × 10^5 CFU/mL. In this process, bacteria with culture medium were used as the growth control group; PBS was set up as the vehicle control group; sterile culture medium was used as the blank control group; and Norfloxacin at a concentration of 2 mg/mL and amphotericin B at a concentration of 1 mg/mL were set up as the positive control group for bacteria and fungi, respectively.
(§2) After being incubated for 24 h, a Synergy HT plate reader (Bio-Tek, Shoreline, WA, USA) was used to detect the absorbance of each well in the 96-well plate at λ = 550 nm. The concentration at which no visible turbidity could be recorded was the MIC value. Beginning from the MIC value, 10 µL of solution in each clear well was dropped on the sterile agar plates. The plate was checked the next day for colony formation, and the lowest concentration at which no colony growing was recorded as an MBC value.

[1] = test system: MRSA (ATCC 12493) biofilm; format: cell-based, methicillin-resistant Staphylococcus aureus; details: ATCC 12493, 24 h
Description: To test the anti-biofilm ability of PSTO2 and its analogues, three types of microorganisms (S. aureus ATCC® 6538, E. coli ATCC® 8739, and MRSA NCTC® 12493) were chosen. Tryptic soy broth (TSB) and Lysogeny broth (LB) were used to culture microorganisms. The peptide was dissolved in an autoclaved PBS solution and diluted into concentrations ranging from 51,200 µM to 100 µM. One µL of peptide solution of each concentration was added into a 96-well plate with 100 µL bacterium at 5 × 10^5 CFU/mL. The plate was incubated at 37 °C for 24 h, with shaking at 200 rpm. After overnight incubation, the planktonic bacteria were washed up. Then, 100 µL of methanol was used to fix the biofilms onto the bottom, and 100 µL of 0.1% crystal violet solution (Sigma-Aldrich, Gillingham, UK) was added to each well to stain the biofilms. After drying, 160 µL of acetic acid (30% in deionised water, Sigma-Aldrich, UK) was added to each well to dissolve the shaded parts. The absorbance was detected with the Synergy HT plate reader at λ = 595 nm.
For the MBEC assay, 100 µL of the bacterium of 5 × 10^5 CFU/mL was transferred into an empty 96-well plate, and the plate was incubated at 37 °C for 24 h to obtain the biofilms primarily. Then, the peptide solution from 512 µM to 1 µM was transferred into a corresponding well, followed by 24 h incubation at 37 °C, with shaking at 200 rpm. After this, the plate was handled using the identical method to the plate in the MBIC assay, and the absorbance of each well was detected with the Synergy HT plate reader at λ = 595 nm. The minimum concentration at which the peptide can eradicate the existing biofilm was recorded as the MBEC value.

S. aureus (ATCC 6538) = format: cell-based, Staphylococcus aureus; details: ATCC 6538, 24 h
Source text: as §1, with “In this process, bacteria with culture medium were used as the growth control group; PBS was set up as the vehicle control group; sterile culture medium was used as the blank control group; and Norfloxacin at a concentration of 2 mg/mL and amphotericin B at a concentration of 1 mg/mL were set up as the positive control group for bacteria and fungi, respectively.” left out
as §2, with “value. […]” for “value. Beginning from the MIC value, 10 µL of solution in each clear well was dropped on the sterile agar plates.”, “value. […]” for “value.”

In the case of CC[C@H](C)[C@H](NC(=O)[C@H](C)NC(=O)[C@@H](CCCCN)NC(=O)[C@@H]1CCCN1C(=O)[C@@H](NC(=O)[C@H](CC(C)C)NC(=O)[C@H](CO)NC(=O)[C@H](CC(C)C)NC(=O)[C@@H](N)Cc1ccccc1)[C@@H](C)CC)C(=O)N[C@@H](CCCCN)C(=O)N[C@@H](C)C(=O)N[C@H](C(=O)N[C@@H](CCCCN)C(=O)N[C@@H](C)C(=O)N[C@@H](CC(C)C)C(=O)N[C@@H](C)C(=O)N[C@@H](CCCCN)C(=O)N[C@H](CCCCN)C(=O)N[C@@H](CC(C)C)C(N)=O)C(C)C [SR2D10] (H-FLSLIP[dK]AIKAVKALAK[dK]L-NH2), the MBC (MRSA (NCTC 12493)) was 1/1 μM, the MBEC [1] was 32 µM and the MBIC [1] was 16 µM.
Molecule CC[C@H](C)[C@H](NC(=O)[C@H](C)NC(=O)[C@@H](CCCCN)NC(=O)[C@@H]1CCCN1C(=O)[C@@H](NC(=O)[C@H](CC(C)C)NC(=O)[C@H](CO)NC(=O)[C@H](CC(C)C)NC(=O)[C@@H](N)Cc1ccccc1)[C@@H](C)CC)C(=O)N[C@@H](CCCCN)C(=O)N[C@@H](C)C(=O)N[C@H](C(=O)N[C@@H](CO)C(=O)N[C@@H](C)C(=O)N[C@@H](CC(C)C)C(=O)N[C@@H](C)C(=O)N[C@@H](CCCCN)C(=O)N[C@@H](CCCCN)C(=O)N[C@@H](CC(C)C)C(N)=O)C(C)C [SRD7] (H-FLSLIP[dK]AIKAVSALAKKL-NH2) has an MBC (MRSA (NCTC 12493)) of 2 µM, an MIC (MRSA (NCTC 12493)) of 1 µM and an MBEC [1] of 16 µM. For the same molecule, the MBIC [1] was 4 µM.
FLSLIPKAIKAVKALAKKL-NH2 [SR2] gave an MBC (MRSA (NCTC 12493)) of 2 µM, an MIC (MRSA (NCTC 12493)) of 2 µM and an MBEC [1] of 16 µM. It also gave an MBC (S. aureus (ATCC 6538)) of 2 µM and an MIC (S. aureus (ATCC 6538)) of 2 µM.
FLSLIPKAIKAVSALAKKL-NH2 [SR] gave an MBC (MRSA (NCTC 12493)) of 2 µM, an MIC (MRSA (NCTC 12493)) of 2 µM and an MBEC [1] of 16 µM.
